The values below come from patent US5750566A, “Synthetic excitatory amino acids” (Eli Lilly and Company, priority 1995, dated 1998).

Test [1] concerns metabotropic glutamate receptors. The experiment in a line: Displacement of (1S,3R)-ACPD-sensitive [3H]glutamate binding to rat brain cell membranes (receptor binding). The conditions noted are these: crude membranes of rat forebrain; compounds 3 and 8 tested as mixture of enantiomers, 6 and 7 as pure enantiomers; read-out: IC50 (concentration that inhibited 50% [3H]glutamate binding). Here is the method:
The binding of [^3 H]glutamate ([^3 H]Glu) was conducted with crude membranes of rat forebrain as described by Schoepp and True. Schoepp and True, Neuroscience Lett., 145, 100-104 (1992); Wright, McDonald, and Schoepp, J. Neurochem., 63, 938-945 (1994). The concentration of the formula I compound that inhibited 50% binding (IC50), or the percent displacement of [^3 H]Glu at a 10 μM or 100 μM concentration of the formula I compound, is shown in Table I.

Test [2] concerns the target cAMP-linked metabotropic glutamate receptors (rat cerebral cortex). The test is described as follows: Inhibition of forskolin-stimulated cAMP formation in rat cerebral cortex. It counts as biochemical. Here is the method: (§1) The formula I compounds are effective in affecting the cAMP-linked metabotropic glutamate receptors. Representative compounds were tested for their ability to decrease forskolin-stimulated cAMP formation in the rat hippocampus and the rat cerebral cortex, using the procedures described in Schoepp and Johnson. Schoepp and Johnson, Neurochem. Int., 22, 277-283 (1993).

Test [3] has as its target cAMP-linked metabotropic glutamate receptors (rat hippocampus). The experiment in a line: Inhibition of forskolin-stimulated cAMP formation in rat hippocampus. It counts as biochemical. Here is the method:
as §1

Test [4] deals with mice. The test is described as follows: Automated elevated plus maze model of anxiety. In kind it is in vivo, mouse (male NIH Swiss). The settings on record: five-minute test. The method, then:
The elevated plus maze model is based upon the natural aversion of rodents to height and open spaces.
(§2) Male Long Evans rats (180-400 g) or male NIH Swiss mice (18-35 g) were obtained from Harlan Sprague-Dawley, Cumberland, Ind., USA and acclimated at least 3 days before testing. Animals were housed at 23±2° C.(relative humidity 30% to 70%) and given Purina Certified Rodent Chow and water ad libitum. The photoperiod was 12 hours of light and 12 hours of dark, with dark onset at approximately 1800 hours.
(§3) Test compounds were dissolved in a vehicle of purified water and neutralized with 5N NaOH to a pH of 7-8 when applicable. […] Control animals received the respective vehicle.
Automated Elevated Plus Maze
Construction of the elevated plus-maze was based on a design validated for mice by Lister (1987). The entire maze was made of clear Plexiglas. The maze was comprised of two open arms (30×5×0.25 cm) and two enclosed arms (30×5×15 cm). The floor of each maze arm was corrugated to provide texture. The arms extended from a central platform and angled at 90 degrees from each other. The maze was elevated to a height of 45 cm above the floor and illuminated by red light. Individual infrared photocells were mounted along each arm of the maze to monitor closed, open, or nosepoke activity. Mice were individually placed on the central platform of the maze and the number of closed arm, open arm, and nosepoke (poking head only into open arm from closed arm of maze) counts were recorded and used as a measure of arm entries and time spent on various sections of the maze over a five-minute test period.

The test system of test [5] is Long Evans rats. The experiment in a line: Auditory startle after nicotine withdrawal. It counts as in vivo, rat (Long Evans). Here is the method: This cessation of drug dosing elicits an increased startle response to auditory stimuli.
Long Evans rats (200-400 g; Harlan Sprague Dawley, Columbus, Ind.) were individually housed in a controlled environment on a 12 hour light-dark cycle and given free access to food (Purina Rodent Chow) and water. Rats were anesthetized with isoflurane and Alzet osmotic pumps (Alza Corporation) were implanted subcutaneously.
Test compound was dissolved in a vehicle of purified water and neutralized with 5N NaOH to a PH of 7-8 when applicable. […] Nicotine (Research Biochemicals Inc., Natick, Mass.) was dissolved in saline. Control animals received the respective vehicle.
Twelve days following subcutaneous implantation of pumps, rats were anesthetized with isoflurane and the pumps were removed. During withdrawal (following pump removal), the auditory startle response (peak amplitude, Vmax) of individual rats was recorded using San Diego Instruments startle chambers (San Diego, Calif.). Startle sessions consisted of a 5-minute adaptation period at a background noise level of 70±2 dBA immediately followed by 25 presentations of auditory stimuli (120±2 dBA noise, 50 ms duration) presented at 8-second intervals. Peak startle amplitudes were then averaged for all 25 presentations of stimuli for each session and all data are presented here as overall session means. Auditory startle responding was evaluated daily on withdrawal days 1,2,3,4 or 5. Baseline startle responding was evaluated prior to pump removal on day 12.

The test system of test [6] is Long Evans rats. The experiment in a line: Auditory startle after diazepam withdrawal. It counts as in vivo, rat (Long Evans).
The subject of test [7] is cAMP-linked metabotropic glutamate receptors. The settings on record: literature; cited from earlier work.
Test [8] relates to PI-linked metabotropic glutamate receptors. The conditions noted are these: literature; for L-CCG-I at higher concentrations; cited from earlier work.
Test [9] relates to Long Evans rats. The conditions noted are these: statement about clinically proven anxiolytics; cited from earlier work.
Test [10] concerns mice. The conditions noted are these: statement about clinically proven anxiolytics; cited from earlier work.
The subject of test [11] is Long Evans rats. The test is described as follows: Fear potentiated startle model of anxiety. In kind it is in vivo, rat (male Long Evans).
Excerpt: In the fear potentiated startle model, animals are exposed to a neutral stimulus such as light (conditioned stimulus) with an aversive stimulus such as a shock (unconditioned stimulus). Following conditioning, when the animals are presented with a loud acoustic stimulus, larger startle responses are elicited when the startle stimulus is preceded by light.
as §2, §3
SL-LAB (San Diego Instruments, San Diego, Calif.) chambers were used for conditioning sessions and for the production and recording of startle responses. A classical conditioning procedure was used to produce potentiation of startle responses. Briefly, on the first 2 days, rats were placed into dark startle chambers in which shock grids were installed. […]

Structures can show the parent of a compound that is named as a salt.

`NC1(C(=O)O)CCC2C(C(=O)O)C21` (single isomer, unassigned; (+)) [Compound 6, (+)-2-Aminobicyclo[3.1.0]hexane-2,6-dicarboxylic Acid]: in [1], the IC50 worked out at 180 nM. Moreover, the EC50 is 55 ± 17 nM in test [2] and 36 ± 15 nM in test [3]. Also, the nosepoke counts entry in test [4] (oral, 3 mg/kg) is “significant increase”. The open arm activity entry in test [4] (oral, 1, 3 and 10 mg/kg) is “significant increases”. In addition, the “closed arm activity counts” value in test [4] (oral, any dose) was “not significantly altered”. The “attenuation of heightened startle” value in test [5] (3 mg/kg, p.o., compared to nicotine controls) is given as “significant attenuation”. Also, the ED50 in [5] (Rattus norvegicus, ip, compared to nicotine controls, route printed i.p., read-out: ED50, attenuation of nicotine withdrawal-induced heightened startle) amounted to 0.7 mg/kg; in test [6] (Rattus norvegicus, po, read-out: ED50, attenuation of diazepam withdrawal-enhanced startle, p.o., compared to control responding) it was 0.1 mg/kg. For the same molecule, the “withdrawal-induced increase in startle responding after pretreatment” value in [5] (pretreatment, nicotine withdrawal) is “dose-dependent blockade”. In [6] (0.1 and 0.3 mg/kg, p.o., compared to control responding), the “attenuation of enhanced startle” value was “significantly attenuated enhanced startle”. Besides, the “expected increase in startle responding following cessation of diazepam, after pretreatment” value in test [6] (pretreatment, diazepam withdrawal) is recorded as “blocked the expected increase in startle responding”.
As to `N[C@H](C(=O)O)[C@H]1C[C@@H]1C(=O)O` [L-CCG-I, (2S,3S,4S)-2-(carboxycyclopropyl)glycine], in [7], the “agonist activity at cAMP-linked metabotropic glutamate receptors” value is reported as “selective cAMP-linked metabotropic glutamate receptor agonist”. Further, in test [8], the “activity at PI-linked metabotropic glutamate receptors” value is listed as “activity at PI-linked metabotropic receptors”.
Turning to `O=C1CC2(CCCC2)CC(=O)N1CCCCN1CCN(c2ncccn2)CC1` [buspirone hydrochloride], the “reduction of fear (increased startle response) associated with presentation of light” value in test [9] is recorded as “effective at reducing the fear (increased startle response)”. The “reduction of fear of open spaces in elevated plus maze” value in [10] is “reducing the fear of open spaces”.
Turning to `N[C@@]1(C(=O)O)CC[C@H]2[C@@H](C(=O)O)[C@H]21` (racemic) [Compound 8, (1SR,2SR,5RS,6RS) 2-Aminobicyclo[3.1.0]hexane-2,6-dicarboxylic Acid], in test [1], the IC50 is 3200 nM.
On to `CN1C(=O)CN=C(c2ccccc2)c2cc(Cl)ccc21` [Diazepam, reference compound], for which the ED50 in test [11] (Rattus norvegicus, po, read-out: ED50, fear potentiated startle) stood at 0.4 mg/kg. In addition, in [6] (30 mg/kg, i.p. daily 60 minutes before evaluation, days 1 through 4, vs diazepam control), the “increased reactivity following diazepam cessation with diazepam replacement” value is on record as “did not show increased reactivity”. Moreover, the “increased startle responding with diazepam replacement” value in test [6] (replacement 3 and 10 mg/kg, i.p.) is “did not block the increased startle responding”. In addition, in test [6] (replacement 3 and 10 mg/kg, i.p., in some instances), the “increased reactivity with diazepam replacement” value is “further increased reactivity”. In test [9], the “reduction of fear (increased startle response) associated with presentation of light” value is on record as “effective at reducing the fear (increased startle response)”. In addition, in [10], the “reduction of fear of open spaces in elevated plus maze” value was “reducing the fear of open spaces”.
With `NC1(C(=O)O)CCC2C(C(=O)O)C21` (single isomer, unassigned; (-)) [Compound 7, (-)-2-Aminobicyclo[3.1.0]hexane-2,6-dicarboxylic Acid], in [1], the IC50 is 161000 nM. Also, the concentration for a half-maximal effect (EC50) is 22000 ± 3400 nM in test [2] and 29400 ± 3040 nM in test [3]. Further, the “ED50, fear potentiated startle” value in [11] (p.o., Inactive = at highest dose tested, 10 mg/kg p.o.) is given as “Inactive”.
As for `N[C@@]1(C(=O)O)CC[C@@H](C(=O)O)C1` [1S,3R-ACPD, (1S,3R)-1-Aminocyclo-pentane-1,3-dicarboxylic acid], in test [7], the “agonist activity at cAMP-linked metabotropic glutamate receptors” value was “agonist of PI-linked and cAMP-linked metabotropic glutamate receptors”. In test [8], the “activity at PI-linked metabotropic glutamate receptors” value was “agonist of PI-linked and cAMP-linked metabotropic glutamate receptors”.
As for `N[C@@]1(C(=O)O)CC[C@H]2[C@H](C(=O)O)[C@H]21` (racemic) [Compound 3, (1SR,2SR,5RS,6SR) 2-Aminobicyclo[3.1.0]hexane-2,6-dicarboxylic Acid], the IC50 in test [1] amounted to 320 nM.
In the case of `CN1CCC[C@H]1c1cccnc1` [nicotine, reference compound], in test [5] (0.03 mg/kg, i.p., or higher), the “heightened startle response with nicotine replacement dose” value is reported as “did not display the same heightened startle response”. Further, the “auditory startle responding following cessation of chronic nicotine exposure” value in test [5] (first three days after cessation, vs control rats receiving water, nicotine 6 mg/kg/day s.c.) is “significantly increased”.
